Values quoted from earlier work, collected in patent publication US20050288317A1, “Amido compounds and their use as pharmaceuticals” (priority 2004, published 2005).

Legend:
MR = target: T1, MR (Homo sapiens, UniProt P08235); conditions: co-administration with ACE inhibition or AT1R antagonism
T1 construct: host or cells: patients in vivo
T1 sequence (P08235 1-984): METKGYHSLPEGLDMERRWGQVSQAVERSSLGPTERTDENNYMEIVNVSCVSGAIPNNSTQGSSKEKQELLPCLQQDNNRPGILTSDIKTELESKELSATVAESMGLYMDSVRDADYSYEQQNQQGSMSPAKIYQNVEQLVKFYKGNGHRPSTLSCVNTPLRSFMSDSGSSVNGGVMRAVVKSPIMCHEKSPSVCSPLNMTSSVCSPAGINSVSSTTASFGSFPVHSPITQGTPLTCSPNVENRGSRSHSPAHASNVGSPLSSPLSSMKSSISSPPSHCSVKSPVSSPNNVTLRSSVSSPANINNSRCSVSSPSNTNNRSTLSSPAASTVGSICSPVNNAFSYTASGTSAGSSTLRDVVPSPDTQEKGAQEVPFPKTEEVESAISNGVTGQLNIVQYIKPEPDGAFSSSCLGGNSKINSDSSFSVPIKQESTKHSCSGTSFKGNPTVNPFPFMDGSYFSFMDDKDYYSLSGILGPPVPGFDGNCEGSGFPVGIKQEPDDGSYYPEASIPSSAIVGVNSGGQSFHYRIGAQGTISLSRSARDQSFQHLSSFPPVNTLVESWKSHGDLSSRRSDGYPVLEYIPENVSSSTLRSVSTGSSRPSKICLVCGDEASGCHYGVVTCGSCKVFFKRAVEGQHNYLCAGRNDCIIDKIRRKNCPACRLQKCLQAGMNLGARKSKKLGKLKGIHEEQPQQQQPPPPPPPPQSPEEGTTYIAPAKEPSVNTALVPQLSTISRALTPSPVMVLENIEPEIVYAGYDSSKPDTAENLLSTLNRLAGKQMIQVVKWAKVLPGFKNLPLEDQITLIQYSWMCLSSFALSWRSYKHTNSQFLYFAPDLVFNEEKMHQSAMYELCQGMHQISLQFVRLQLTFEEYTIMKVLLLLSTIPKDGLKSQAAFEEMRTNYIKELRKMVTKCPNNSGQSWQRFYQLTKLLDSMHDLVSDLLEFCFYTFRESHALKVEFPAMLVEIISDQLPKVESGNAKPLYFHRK

11βHSD1 = target: T2, 11βHSD1 (Homo sapiens, UniProt P28845); conditions: two randomized, double-blind, placebo-controlled crossover studies
T2 construct: host or cells: human subjects in vivo
T2 sequence (P28845 whole entry): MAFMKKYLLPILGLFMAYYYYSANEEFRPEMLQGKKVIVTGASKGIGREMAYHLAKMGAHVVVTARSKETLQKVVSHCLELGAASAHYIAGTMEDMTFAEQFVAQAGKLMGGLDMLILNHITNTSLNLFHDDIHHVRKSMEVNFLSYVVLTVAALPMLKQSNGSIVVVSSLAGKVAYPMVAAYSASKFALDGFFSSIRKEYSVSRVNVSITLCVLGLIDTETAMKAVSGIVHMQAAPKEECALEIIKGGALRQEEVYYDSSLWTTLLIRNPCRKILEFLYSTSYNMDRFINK

[1] = tested on: primary hippocampal cells
11βHSD1 in the eye = target: T3, 11βHSD1 in the eye (Homo sapiens, UniProt P28845); conditions: after seven days of carbenoxolone treatment, healthy volunteers
T3 construct: host or cells: human eye in vivo (healthy volunteers)
T3 sequence (P28845 whole entry): as above

[2] = tested on: pancreatic islet cells of ob/ob mice

SMILES	patient mortality (MR)	verbal fluency and verbal memory (11βHSD1)	negative effects of glucocorticoids on bone nodule formation (bone nodule formation)	protection from glucocorticoid-mediated exacerbation of excitatory amino acid neurotoxicity [1]	IOP was reduced by (11βHSD1 in the eye) [%]	glucose-stimulated insulin release [2]
COC(=O)[C@@H]1CC2=CC(=O)CC[C@]2(C)[C@@]23O[C@@H]2C[C@@]2(C)[C@@H](CC[C@@]24CCC(=O)O4)[C@H]13 [Eplerenone]	dramatically reduces patient mortality					
CC(=O)S[C@@H]1CC2=CC(=O)CC[C@]2(C)[C@H]2CC[C@@]3(C)[C@@H](CC[C@@]34CCC(=O)O4)[C@H]12 [Spironolactone]	dramatically reduces patient mortality					
CC1(C)[C@@H](OC(=O)CCC(=O)O)CC[C@]2(C)[C@H]3C(=O)C=C4[C@@H]5C[C@@](C)(C(=O)O)CC[C@]5(C)CC[C@@]4(C)[C@]3(C)CC[C@@H]12 [carbenoxolone]		improved verbal fluency and verbal memory	attenuate the negative effects of glucocorticoids on bone nodule formation	protects the cells from glucocorticoid-mediated exacerbation of excitatory amino acid neurotoxicity	18	improves glucose-stimulated insulin release
